Laboratory results reported in US20190127359A1, “Compounds & Methods for the Enhanced Degradation of Targeted Proteins & Other Polypeptides by an E3 Ubiquitin Ligase” (YALE UNIVERSITY, priority 2012, published 2019).

Target: VHL (Homo sapiens, UniProt P40337)
Assay: Fluorescence polarization competition assay (HIF-1α peptide FP displacement)

Structure (SMILES) | IC50 (IC50 (μM) 10% DMSO, 10% DMSO) [µM] | IC50 (μM) 1% DMSO (1% DMSO) | IC50 (μM) 10% DMSO (10% DMSO) | IC50 (IC50 (μM) 1% DMSO, 1% DMSO) [µM]
CC(=O)Nc1ccc(Br)cc1C(=O)N1C[C@H](O)C[C@H]1C(=O)NCc1ccc(Cl)cc1 [VL083] | > 1000 | – | – | –
O=C(NCc1ccc(Cl)cc1)[C@@H]1C[C@@H](O)CN1C(=O)c1ccc([N+](=O)[O-])c(O)c1 [VL084] | 460 | – | – | –
O=C(NCc1ccc(Cl)cc1)[C@@H]1C[C@@H](O)CN1C(=O)c1ccncc1 [VL096] | 32.5 | – | – | –
O=C(NCc1ccc(Cl)cc1)[C@@H]1C[C@@H](O)CN1C(=O)c1cccnc1 [VL097] | 49.4 | – | – | –
O=C(NCc1ccc(Cl)cc1)[C@@H]1C[C@@H](O)CN1C(=O)c1ccccn1 [VL098] | 244 | – | – | –
O=C(NCc1ccc(Cl)cc1)[C@@H]1C[C@@H](O)CN1C(=O)c1ccnc(Cl)c1 [VL099] | 39.6 | – | – | –
O=C(NCc1ccc(Cl)cc1)[C@@H]1C[C@@H](O)CN1C(=O)c1cncc(Br)c1 [VL100] | 63.6 | – | – | –
Cc1nc(C(=O)N2C[C@H](O)C[C@H]2C(=O)NCc2ccc(Cl)cc2)co1 [VL101] | 940 | – | – | –
Cc1n[nH]cc1C(=O)N1C[C@H](O)C[C@H]1C(=O)NCc1ccc(Cl)cc1 [VL102] | 64.5 | – | – | –
O=C(NCc1ccc(Cl)cc1)[C@@H]1C[C@@H](O)CN1C(=O)CCN1CCCCC1 [VL104] | > 1000 | – | – | –
O=C(NCc1ccc(Cl)cc1)[C@@H]1C[C@@H](O)CN1C(=O)Cc1cccnc1 [VL105] | > 1000 | – | – | –
Cc1nc(S)sc1CC(=O)N1C[C@H](O)C[C@H]1C(=O)NCc1ccc(Cl)cc1 [VL106] | > 1000 | – | – | –
O=C(NCc1ccc(Cl)cc1)[C@@H]1C[C@@H](O)CN1C(=O)CN1C(=O)CSC1=S [VL108] | 347 | – | – | –
O=C(NCc1ccc(Cl)cc1)[C@@H]1C[C@@H](O)CN1C(=O)Cc1c[nH]cn1 [VL120] | > 1000 | – | – | > 1000
O=C(NCc1ccc(Cl)cc1)[C@@H]1C[C@@H](O)CN1C(=O)c1ccccc1-c1cnco1 [VL121] | > 1000 | – | – | > 1000
O=C(NCc1ccc(Cl)cc1)[C@@H]1C[C@@H](O)CN1C(=O)c1cccc(-c2cnco2)c1 [VL122] | 102 | – | – | 220
O=C(NCc1ccc(Cl)cc1)[C@@H]1C[C@@H](O)CN1C(=O)c1cccc(-c2ncc[nH]2)c1 [VL123] | 560 | – | – | 404
O=C(NCc1ccc(Cl)cc1)[C@@H]1C[C@@H](O)CN1C(=O)c1cccc2[nH]ccc12 [VL124] | 990 | – | – | 670

Structure (SMILES) | IC50 (IC50 (μM) 10% DMSO, 10% DMSO) [µM] | IC50 (μM) 1% DMSO (1% DMSO) | IC50 (μM) 10% DMSO (10% DMSO) | IC50 (IC50 (μM) 1% DMSO, 1% DMSO) [µM]
O=C(NCc1ccc(Cl)cc1)[C@@H]1C[C@@H](O)CN1C(=O)c1cccc2[nH]cnc12 [VL125] | 790 | – | – | 568
O=C(NCc1ccc(Cl)cc1)[C@@H]1C[C@@H](O)CN1C(=O)c1ccc2[nH]ncc2c1 [VL126] | 88.1 | – | – | 82
O=C(NCc1ccc(Cl)cc1)[C@@H]1C[C@@H](O)CN1C(=O)c1ccc2cn[nH]c2c1 [VL127] | 47.7 | – | – | 73
O=C(NCc1ccc(Cl)cc1)[C@@H]1C[C@@H](O)CN1C(=O)c1cccc2cnccc12 [VL128] | 57.9 | – | – | 224
O=C(NCc1ccc(Cl)cc1)[C@@H]1C[C@@H](O)CN1C(=O)c1cccc2cccnc12 [VL129] | 760 | – | – | 493
O=C(NCc1ccc(Cl)cc1)[C@@H]1C[C@@H](O)CN1S(=O)(=O)c1cccc2cccnc12 [VL130] | > 1000 | – | – | > 1000
CC(C)[Si](c1cn(CC(=O)N2C[C@H](O)C[C@H]2C(=O)NCc2ccc(-c3ccccc3)cc2)nn1)(C(C)C)C(C)C [VL135] | – | – | Inactive | > 1000
COC(=O)Cc1cn(CC(=O)N2C[C@H](O)C[C@H]2C(=O)NCc2ccc(-c3ccccc3)cc2)nn1 [VL136] | 28.2 | – | – | 540
COCc1cn(CC(=O)N2C[C@H](O)C[C@H]2C(=O)NCc2ccc(-c3ccccc3)cc2)nn1 [VL137] | 35.6 | – | – | 128
COCc1cn(CC(=O)N2C[C@H](O)C[C@H]2C(=O)NCc2ccc(Cl)cc2)nn1 [VL141] | 192 | – | – | 220
Cc1cc(CC(=O)N2C[C@H](O)C[C@H]2C(=O)OCc2ccc(-c3ccccc3)cc2)on1 [VL142] | 780 | – | – | > 1000
O=C(NCc1ccc(-c2ccccc2)cc1)[C@@H]1C[C@@H](O)CN1Cc1ccccc1Cl [VL143] | > 1000 | – | – | > 1000
Cc1cc(CC(=O)N2C[C@H](O)C[C@H]2C(=O)OCc2ccc(Cl)cc2)on1 [VL144] | > 1000 | – | – | > 1000
Cc1cc(CCN2C[C@H](O)C[C@H]2C(=O)NCc2ccc(-c3ccccc3)cc2)on1 [VL145] | > 1000 | – | – | > 1000
CCOC(=O)Cn1cc(-c2cccc(C(=O)N3C[C@H](O)C[C@H]3C(=O)NCc3ccc(Cl)cc3)c2)nn1 [VL148] | 23.8 | – | – | 113
COC(=O)Cc1cn(-c2ccccc2C(=O)N2C[C@H](O)C[C@H]2C(=O)NCc2ccc(Cl)cc2)nn1 [VL153] | 978 | – | – | –
O=C(NCc1ccc(Cl)cc1)[C@@H]1C[C@@H](O)CN1C(=O)Cn1ccnc1 [VL156] | > 1000 | – | – | > 1000
Cn1cc(CC(=O)N2C[C@H](O)C[C@H]2C(=O)NCc2ccc(Cl)cc2)cn1 [VL157] | 372 | – | – | 360

Other lines, results leading:

IC50 (IC50 (μM) 10% DMSO, 10% DMSO) [µM] | IC50 (μM) 1% DMSO (1% DMSO) | IC50 (μM) 10% DMSO (10% DMSO) | IC50 (IC50 (μM) 1% DMSO, 1% DMSO) [µM] | Structure (SMILES)
27.1 | – | – | – | Cc1cc(CC(=O)N2C[C@H](O)C[C@H]2C(=O)NCc2ccc(Cl)cc2Cl)on1 [VL085]
168 | – | – | – | Cc1cc(CC(=O)N2C[C@H](O)C[C@H]2C(=O)NCc2cccc3ccccc23)on1 [VL086]
103 | – | – | – | Cc1cc(CC(=O)N2C[C@H](O)C[C@H]2C(=O)NCc2ccc(S(N)(=O)=O)cc2)on1 [VL087]
18.2 | – | – | – | Cc1cc(CC(=O)N2C[C@H](O)C[C@H]2C(=O)NCc2ccc(C#N)cc2)on1 [VL088]
40.8 | – | – | – | Cc1cc(CC(=O)N2C[C@H](O)C[C@H]2C(=O)NCc2ccc(C(=O)C(C)C)cc2)on1 [VL089]
45.2 | – | – | – | Cc1cc(CC(=O)N2C[C@H](O)C[C@H]2C(=O)NCc2ccc(C(=O)CC(C)C)cc2)on1 [VL090]
23 | – | – | – | Cc1cc(CC(=O)N2C[C@H](O)C[C@H]2C(=O)NCc2ccc(C(=O)OCC3CC3)cc2)on1 [VL091]
510 | – | – | – | CON(C)C(=O)c1ccc(CNC(=O)[C@@H]2C[C@@H](O)CN2C(=O)Cc2cc(C)no2)cc1 [VL093]
540 | – | – | – | Cc1cc(CC(=O)N2C[C@H](O)C[C@H]2C(=O)NCc2cccc3cccnc23)on1 [VL094]
349 | – | – | – | Cc1cc(CC(=O)N2C[C@H](O)C[C@H]2C(=O)NCc2c[nH]c3ccccc23)on1 [VL109]
138 | – | – | – | Cc1cc(CC(=O)N2C[C@H](O)C[C@H]2C(=O)NCc2ccc(N3CCCCC3)cc2)on1 [VL110]
11.3 | – | – | – | Cc1cc(CC(=O)N2C[C@H](O)C[C@H]2C(=O)NCc2ccc(-c3ncco3)cc2)on1 [VL112]
– | Inactive | Inactive | – | Cc1cc(CC(=O)N2C[C@H](F)C[C@H]2C(=O)NCc2ccc(-c3cnco3)cc2)on1 [VL113]
– | Inactive | Inactive | – | CC(=O)O[C@@H]1C[C@@H](C(=O)NCc2ccc(-c3cnco3)cc2)N(C(=O)Cc2cc(C)no2)C1 [VL114]
17 | – | – | 19 | Cc1cc(CC(=O)N2C[C@H](O)C[C@H]2C(=O)NCc2cccc(-c3scnc3C)c2)on1 [VL115]
5 | – | – | 13 | Cc1cc(CC(=O)N2C[C@H](O)C[C@H]2C(=O)NCc2ccc(-c3ocnc3C)cc2)on1 [VL117]
16.4 | – | – | 31 | Cc1cc(CC(=O)N2C[C@H](O)C[C@H]2C(=O)NCc2cccc(-c3cccn3C)c2)on1 [VL118]

IC50 (IC50 (μM) 10% DMSO, 10% DMSO) [µM] | IC50 (μM) 1% DMSO (1% DMSO) | IC50 (μM) 10% DMSO (10% DMSO) | IC50 (IC50 (μM) 1% DMSO, 1% DMSO) [µM] | Structure (SMILES)
17.8 | – | – | 33 | Cc1cc(CC(=O)N2C[C@H](O)C[C@H]2C(=O)NCc2ccc(-c3cccn3C)cc2)on1 [VL119]
8 | – | – | 19 | Cc1cc(CC(=O)N2C[C@H](O)C[C@H]2C(=O)NCc2ccc(-c3ncon3)cc2)on1 [VL131]
77.7 | – | – | 85 | COc1ccc(Cn2cncc2-c2ccc(CNC(=O)[C@@H]3C[C@@H](O)CN3C(=O)Cc3cc(C)no3)cc2)cc1 [VL132]
2.2 | – | – | 7.5 | Cc1cc(CC(=O)N2C[C@H](O)C[C@H]2C(=O)NCc2ccc(-c3cc[nH]c3)cc2)on1 [VL133, (2S,4R)—N-(4-(1H-pyrrol-3-yl)benzyl)-4-hydroxy-1-(2-(3-methylisoxazol-5-yl)acetyl)pyrrolidine-2-carboxamide]
48.1 | – | – | 54 | Cc1cc(CC(=O)N2C[C@H](O)C[C@H]2C(=O)NCc2cccc(-c3cc[nH]c3)c2)on1 [VL134]
52.2 | – | – | 70 | Cc1cc(CC(=O)N2C[C@H](O)C[C@H]2C(=O)NCc2ccc(-c3c(C)noc3C)cc2)on1 [VL138]
24.7 | – | – | 44 | Cc1cc(CC(=O)N2C[C@H](O)C[C@H]2C(=O)NCc2ccc(-c3cn[nH]c3)cc2)on1 [VL139]
10.3 | – | – | 17 | Cc1cc(CC(=O)N2C[C@H](O)C[C@H]2C(=O)NCc2ccc(-c3c[nH]nn3)cc2)on1 [VL140]
129 | – | – | 196 | Cc1cc(CC(=O)N2C[C@H](O)C[C@H]2C(=O)NCc2ccc(C(=O)O)cc2)on1 [VL146]
> 1000 | – | – | > 1000 | Cc1cc(CC(=O)N2C[C@H](O)C[C@H]2C(=O)N(C)Cc2ccc(Cl)cc2)on1 [VL147]
16 | – | – | 41 | Cc1cc(CC(=O)N2C[C@H](O)C[C@H]2C(=O)NCc2ccc(-c3ccncc3)cc2)on1 [VL150]
11 | – | – | 33 | Cc1cc(CC(=O)N2C[C@H](O)C[C@H]2C(=O)NCc2ccc(-c3ccc(F)nc3)cc2)on1 [VL151]
22.8 | – | – | 32 | Cc1cc(CC(=O)N2C[C@H](O)C[C@H]2C(=O)NCc2ccc(-c3c(C)n[nH]c3C)cc2)on1 [VL152]
118 | – | – | 77 | Cc1cc(CC(=O)N2C[C@H](O)C[C@H]2C(=O)NCc2ccc(-c3cscn3)cc2)on1 [VL154]
17.4 | – | – | 14 | Cc1cc(CC(=O)N2C[C@H](O)C[C@H]2C(=O)NCc2ccc(-c3cncs3)cc2)on1 [VL155]
266 | – | – | 180 | Cc1cc(CC(=O)N2C[C@H](O)C[C@H]2C(=O)NCc2ccc(-c3cnc[nH]3)cc2)on1 [VL158]
66.9 | – | – | 54 | Cc1cc(CC(=O)N2C[C@H](O)C[C@H]2C(=O)NCc2ccc(-c3cccnc3)cc2)on1 [VL159]
